Molecular target: SUMO-specific protease 1 (SENP1) (Homo sapiens, UniProt Q9P0U3)
Sequence (Q9P0U3 419-644 limits assumed): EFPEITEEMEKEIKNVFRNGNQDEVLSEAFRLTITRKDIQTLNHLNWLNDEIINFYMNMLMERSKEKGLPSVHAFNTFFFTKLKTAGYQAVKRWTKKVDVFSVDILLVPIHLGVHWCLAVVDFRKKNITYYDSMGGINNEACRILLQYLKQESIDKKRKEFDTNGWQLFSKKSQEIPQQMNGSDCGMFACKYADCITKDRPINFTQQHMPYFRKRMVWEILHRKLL

- IC50: 15.4 µM
SMILES: CC1(C)CC[C@]2(C(=O)O)CC[C@]3(C)C(=CC[C@@H]4[C@@]5(C)CC[C@H](O[C@@H]6O[C@H](C(=O)O)[C@@H](O)[C@H](O[C@@H]7OC[C@@H](O)[C@H](O)[C@H]7O)[C@H]6O)C(C)(C)[C@@H]5CC[C@]43C)[C@@H]2C1 [Mc, Momordin Ιc]

Reference: paper PMC5312290, “Momordin Ic, a new natural SENP1 inhibitor, inhibits prostate cancer cell proliferation” (Oncotarget, 2016)
